Laboratory results reported in patent US7179645B2 (priority 2002, dated 2007).
Where a SMILES comes first, the peptide text is derived from it. [ ]: non-standard residue; d: D form. The star is where a group is joined. Nle = CCCC[C@H](N)C(=O)O; Cbz = O=C(OCc1ccccc1)*; ava = not defined here

How the values were obtained:
[1] = system: orthopoxviruses, including variola; details: cited from earlier work
[2] = system: primary mouse macrophages and macrophage-like cell lines; details: cited from earlier work
[3] = system: SKOV3.A2; details: cited from earlier work
[4] = system: early stage breast cancer patients; details: in vivo; cited from earlier work
[5] = system: C3H/HeJ mice (H-2^k); antibodies against the PGCC(95–104) epitope peptide; details: mouse, in vivo
[6] = system: C3H/HeJ(H-2^k) mice; splenic T cells; format: in vivo, mouse; details: for IFN-γ/Th-1 responses to the HIV gp160(843–855) epitope (ELISPOT): C3H/HeJ mice, 40 nmole, boosts day 13 and 31, spleens day 35
Experimental: An ELISPOT assay for IFN-γ cytokine responses was performed in order to titer more exactly splenic T lymphocyte subset responses to immunization with Ii-Key-ava-gp160(843–855) or gp160(843–855). The assay was performed as follows. A solution of the cytokine-specific capture antibody (100 μl at 6 μg/ml in phosphate-buffered saline solution, pH 7.2) was added to each well of a 96-well Immunospot plate (M200) for an overnight incubation at 4° C. After aspiration, phosphate-buffer saline solution 200 μl containing 10% fetal bovine serum and 1% penicillin-streptomycin-glutamine (mouse medium) was added to each well for 2 hr at RT. After washing four times with 1% Tween-20 in phosphate-buffered saline solution (wash buffer I), 100 μl of single cell suspensions from the spleens of immunized mice at 10^6 cells/well were re-stimulated with 100 μl of peptide-epitope at 5 μg/well in mouse medium and incubated for 20–40 hr at 37° C., 5% CO2. After washing twice with phosphate-buffered saline solution (wash buffer II) and four times with wash buffer 1,100 μl of 2 μg/ml biotinylated anti-mouse IFN-γ in 1× phosphate buffer saline with 10% fetal bovine serum (dilution buffer) was added to each well for 2 hr at RT. After washing five times with wash buffer 1,100 μl of streptavidin-horse radish peroxidase conjugate (1:500) in dilution buffer was added to each well for 1 hr at RT. After washing four times with wash buffer I and two times with wash buffer II, 100 μl of the 3-amino-9-ethylcarbazole/H2O2 substrate (Pharmingen 551951) was added and incubated for 30–60 min in the dark at RT. The reaction was stopped by washing three times with 200 μl of deionized water. ELISPOT data analysis was performed by using the Immunospot 1.7e software (Cellular Limited Technology). Digitized images of quadruplicate wells were analyzed for the presence of spots in which color density exceeds background based on comparison of control cells (naive splenocytes) and experimental cells (splenocytes of immunized mice) cells. Additional counting parameters for spot size and circularity were applied to gate out speckles caused by non-specific antibody binding. Each spot represents a single cell secreting IFN-γ.
C3H/HeJ(H-2^k) mice were immunized with 40 nmole of peptides (50 μl) emulsified with equal volume of incomplete Freund's adjuvant (IFA), subcutaneously at the base of the tail. On day 13 the mice were boosted subcutaneously at the base of the tail with 40 nmole of peptides (50 μl) emulsified with equal amount of incomplete Freund's adjuvant (IFA). On day 31, the mice were boosted intravenously with 40 nmole peptides dissolved in 100 μl Hank's balanced salts solution (HBSS). […]

[7] = system: B10.A (5R) mice; antibodies against the HIV gp160(843–855) peptide; format: in vivo, mouse; details: peptides in saline solution; for Antibody induction (ELISA), Dilution^−1 20: serum day 35, against HIV gp160(843–855) peptide, serum dilution^−1 20; for Antibody induction (ELISA), Dilution^−1 60: serum day 35, serum dilution^−1 60; for Antibody induction (ELISA), Dilution^−1 180: serum day 35, serum dilution^−1 180; for Antibody induction (ELISA), Dilution^−1 540: serum day 35, serum dilution^−1 540
Experimental: An ELISA assay for antibody responses following immunization with the experimental peptides indicated above was performed as follows. Fifty microliters (μl) of a solution of the coating peptide at 2 μg/well in 0.1 M carbonate buffer, pH 9.5 was added to each well of a 96-well Nunc-immunoplate (#442404) for an overnight incubation at 4° C. After aspiration, 250 μl of phosphate-buffer saline solution containing 3% fetal bovine serum (assay diluent) was added to each well for 2 hr at RT. After washing three times with assay diluent, 50 μl of 20-times diluted mouse serum in 1:3 serial dilution in assay diluent was added to each well for 2 hr at RT. After washing three times with assay diluent, 50 μl of 1 μg/ml biotinylated goat anti-mouse IgG1 or IgG2a was added to each well and incubated for 1 hr at RT. After washing three times with assay diluent, 50 μl of streptavidin-horse radish peroxidase conjugate (1:1000) was added to each well and incubated for 30 min at RT. After washing three times with assay diluent, 100 μl of tetramethylbenzidine/H2O2 solution (Pharmingen 264 KK) was added to each well for 15 min in the dark at room temperature. The reaction was stopped with 100 μl 1N H2SO4 in each well and the absorbance was read immediately at 450 nm.
B10.A (5R) mice (H-2) were immunized with 20 nmole of peptides in 50 μl phosphate-buffered saline solution, intramuscularly in right and left rear legs on days 1 and 2, respectively. On day 14 the mice were boosted intramuscularly with 40 nmole of peptides in 200 μl Hank's balanced salts solution intramuscularly in a rear leg. On day 30 the mice were boosted intravenously with 40 nmole peptides dissolved in Hank's balanced salts solution (HBSS). On day 35 the mice were sacrificed and serum samples were assayed for antibody titers against the HIV gp160(843–855) peptide.

[8] = system: tumor cells expressing HLA-A24 and CEA; details: cited from earlier work
[9] = system: lymphocytes from HLA-B7+ normal blood donors; details: cited from earlier work
[10] = system: mice in an ovalbumin-induced asthmatic response; details: mouse, in vivo; cited from earlier work
[11] = system: HLA alleles of the A2 supertype (A2.2, A2.3, A2.6 and A6802); details: cited from earlier work
[12] = system: MBP-specific autoantibodies in the CSF; details: human, in vivo; cited from earlier work
[13] = system: patients with resected melanoma; details: human, in vivo; cited from earlier work
[14] = system: B10(A) 5R mice; splenic CD3+/CD4+ T-helper cells; format: in vivo, mouse; details: splenic cells day 26, double color FACS
Text: To test the mechanism for the much greater immunogenecity of Ii-Key/epitope hybrids epitope peptides, B10(A) 5R mice were immunized with 10 nmole of either gp160(843–855) peptide or Ii-Key/gp160(843–855) in CFA subcutaneously at the right side of the base of the tail. On day 10 the mice were boosted with 40 nmole of hybrid peptide or epitope peptide in saline by intravenous injection. On day 26 mice were sacrificed and splenic cells were obtained. 1×10^6 splenic mononuclear cells were stimulated overnight in the presence of 10 units of recombinant IL-2 and indicated peptides (10 μg/ml). During the last 3 hours of incubation, 2 μM monensin (Golgi-stop, Pharmingen) was added to the cultures, and cells were then stained for both cellular surface markers and intracellular IFN-γ. The FACS assay to quantify antigen specific Th1 helper cell responses was performed as follows. The cells were incubated with 1 μg […] (FC/block, Pharmingen) per 10^6 cells in 100 μl of staining buffer (Dulbecco's phosphate-buffered saline solution without magnesium or calcium). Those cells were stained at 10^6 cells/100 μl with either rat-anti-mouse CD3 or CD4 monoclonal antibodies for 30 min at 4° C. After washing, the cells were re-suspended, fixed with 4% formaldehyde, and permeablized with 0.5% saponin for 20 min at 4° C. The cells were suspended in staining buffer with 0.5% saponin, and stained with the appropriate anti-cytokine or isotype control antibody (IFN-γ, XMG1.2, Pharmingen or IFN-γ isotype control, R3–34, Pharmingen). The cells were incubated for 30 min at 4° C. in the dark, washed and fixed for 10 min with 0.3% formaldehyde in 0.5% saponins in staining buffer for flow cytometric analysis. Flow cytometric analysis was performed as follows. First, CD3^+ cells were gated using dual color dot plot of side scatter versus CD3 FITC as the T-gate population. The CD3^+ cells were then analyzed for CD4 expression to target the CD3^+/CD4^+ T-helper cell population. […]

[15] = IFN-γ ELISPOT, C3H/HeJ(H-2^k) mice, spleens day 35, re-stimulated with HIV gp160(843–855) peptide

Question: For `Nc1ccn(C[C@@H](CO)OCP(=O)(O)O)c(=O)n1` [Cidofivir], which activity against orthopoxviruses [1] is on record?
Answer: shows activity

Question: With `CC(C)C[C@@H](C=O)NC(=O)[C@H](CC(C)C)NC(=O)[C@H](CC(C)C)NC(=O)OCc1ccccc1` [MG132] (Cbz-Leu-Leu-Leu-aldehyde) as the compound, how does the LeTx cytotoxicity [2] read?
Answer: efficiently block

Question: With `CCCC[C@@H](C=O)NC(=O)[C@H](CC(C)C)NC(=O)[C@H](CC(C)C)NC(C)=O` [acetyl-Leu-Leu-norleucinal] (Ac-Leu-Leu-[Nle]-aldehyde) as the compound, how does the “presentation of the CTL epitope Her-2/neu(369–377)” value [3] read?
Answer: inhibited

Question: With `CC(=O)N[C@@H](CSC(=O)[C@]1([C@@H](O)C(C)C)NC(=O)[C@H](C)[C@@H]1O)C(=O)O` [lactacystin] as the compound, how does the LeTx cytotoxicity [2] read?
Answer: efficiently block

Question: For `CC/C(=C(\c1ccccc1)c1ccc(OCCN(C)C)cc1)c1ccccc1` [tamoxifen], which overall survival [4] is on record?
Answer: benefited overall survival

Question: What about the survival [4] of the same compound?
Answer: did not improve survival

Question: What does the source list for “Ac-IAYLKQATAK-NH2 [PGCC, reference compound]”?
Answer: Antibody induction (ELISA), Dilution^−1 1620 [5]: −0.003; Antibody induction (ELISA), Dilution^−1 4860 [5]: 0.003

Question: For Ac-LRMK-AYRAIRHIPR-NH2 [gp160(843–855)], which “IFN-γ/Th-1 responses to the HIV gp160(843–855) epitope (ELISPOT)” value [6] is on record?
Answer: IFN-γ/Th-1 responses were elicited

Question: Which “IFN-γ/Th-1 responses to the HIV gp160(843–855) epitope (ELISPOT)” value [6] does the source give for “Ac-LRMK-ava-YRAIRHIPR-NH2 [Ii-Key/one-ava/gp160(844–855)]” here?
Answer: IFN-γ/Th-1 responses were elicited

Question: Which “Antibody induction (ELISA), Dilution^−1 20” value [7] does the source give for Gp160 (843–855) (LRMKAYRAIRHIPR) here?
Answer: 0.052

Question: What about the “Antibody induction (ELISA), Dilution^−1 60” value [7] of the same compound?
Answer: 0.023

Question: What about the “Antibody induction (ELISA), Dilution^−1 180” value [7] of the same compound?
Answer: 0.000

Question: And the “Antibody induction (ELISA), Dilution^−1 540” value [7]?
Answer: −0.005

Question: With HLFYSWYK [9.5.6] as the compound, how does the “elicitation of CTL lines lysing tumor cells expressing HLA-A24 and CEA” value [8] read?
Answer: elicited CTL lines that lysed tumor cells

Question: With IPQQHTQVL [CEA9(632)] as the compound, how does the “primary CTL responses” value [9] read?
Answer: induced primary CTL responses

Question: With ISQAVHAAHAEINAAGR [336E-A] as the compound, how does the “airway eosinophilia and OVA-specific IL-4 and IL-5 production” value [10] read?
Answer: significant decrease

Question: For “Ii-Key/one-ava/gp160 (843–855) (Ac-LRMK[ava]AYRAIRHIPR-NH2; reading uncertain)”, which “Antibody induction (ELISA), Dilution^−1 20” value [7] is on record?
Answer: 0.600

Question: And the “Antibody induction (ELISA), Dilution^−1 60” value [7]?
Answer: 0.157

Question: What about the “Antibody induction (ELISA), Dilution^−1 180” value [7] of the same compound?
Answer: 0.073

Question: And the “Antibody induction (ELISA), Dilution^−1 540” value [7]?
Answer: 0.024

Question: With “Ii-Key/two-ava/gp160 (843–855) (Ac-LRMK[ava][ava]AYRAIRHIPR-NH2; reading uncertain)” as the compound, how does the “Antibody induction (ELISA), Dilution^−1 20” value [7] read?
Answer: 0.131

Question: And the “Antibody induction (ELISA), Dilution^−1 60” value [7]?
Answer: 0.039

Question: And the “Antibody induction (ELISA), Dilution^−1 180” value [7]?
Answer: 0.027

Question: What about the “Antibody induction (ELISA), Dilution^−1 540” value [7] of the same compound?
Answer: 0.003

Question: Which “anti-tumor CTL responses” value [8] does the source give for LMTFWNPPV [9.5.2] here?
Answer: induced vigorous anti-tumor CTL responses

Question: What about the “binding to other common HLA alleles of the A2 supertype” value [11] of the same compound?
Answer: bound tightly

Question: What does the source list for “P85VVHFFKNIVTP96 (PVVHFFKNIVTP; listed as Homo sapiens)”?
Answer: neurological or systemic side effects [12]: No neurological or systemic side effects were observed; tolerance to MBP [12]: induced tolerance

Question: Which “elicitation of CTL lines lysing tumor cells expressing HLA-A24 and CEA” value [8] does the source give for QYSWFVNGTF [9.5.4] here?
Answer: elicited CTL lines that lysed tumor cells

Question: Which “patients developing a positive skin test response” value [13] does the source give for YMDGTMSQV [tyrosinase(368–376)(370D)] here?
Answer: none

Question: Which “Percentage of cells CD3^+/IFN-γ^+” value [14] does the source give for gp160 (843–855) (LRMKAYRAIRHIPR) here?
Answer: 2.05%

Question: And the “Percentage of cells CD4^+” value [14]?
Answer: 31.03%

Question: And the “Percentage of cells CD4^+/IFN-γ^+” value [14]?
Answer: 0.94%

Question: And the “Number (mean number of spots and standard deviation in triplicate wells)” value [6, 15]?
Answer: 5 (+/−3.6)

Question: And the “Size (mean spot size and standard deviation)” value [6, 15]?
Answer: 0.019 (+/−0.01) mm^2
